Source: PubChem BioAssay AID256 (DTP/NCI, 2004)
Several values for one entry are separate records, joined by “and”; a condition that tells them apart may be missing. Identical values can stand only once. Inconclusive results and toxic doses are left out. The calls were made as follows: active = survival T/C of 150% or more; inactive = T/C below 125% in these data.

Tested on: CD2F1 mice, L1210 leukemia ip, survival T/C
Assay: NCI In Vivo Anticancer Drug Screen. Data for tumor model L1210 Leukemia (intraperitoneal) in CD2F1 (CDF1) mice
Conditions: higher = longer survival
Procedure, shortened: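 Antitumor effect is scored in animals hosting a serially transplanted tumor. Values compare compound-dosed animals against vehicle-only controls as a simple quotient.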

[1] = endpoint: mean survival time, dose: 100.0 mg/kg/injection, schedule: Q04DX003 (ip), vehicle: saline with Tween-80
[2] = endpoint: mean survival time, dose: 200.0 mg/kg/injection, schedule: Q04DX003 (ip), vehicle: saline with Tween-80
[3] = endpoint: mean survival time, dose: 400.0 mg/kg/injection, schedule: Q04DX003 (ip), vehicle: saline with Tween-80
[4] = endpoint: mean survival time, dose: 100.0 mg/kg/injection, schedule: Q04DX003 (ip), vehicle: saline
[5] = endpoint: mean survival time, dose: 50.0 mg/kg/injection, schedule: Q01DX009 (ip), vehicle: saline with Tween-80
[6] = endpoint: mean survival time, dose: 100.0 mg/kg/injection, schedule: Q01DX009 (ip), vehicle: saline with Tween-80
[7] = endpoint: mean survival time, dose: 200.0 mg/kg/injection, schedule: Q01DX009 (ip), vehicle: saline with Tween-80
[8] = endpoint: mean survival time, dose: 25.0 mg/kg/injection, schedule: Q01DX009 (ip), vehicle: saline with Tween-80
[9] = endpoint: mean survival time, dose: 400.0 mg/kg/injection, schedule: Q01DX009 (ip), vehicle: saline with Tween-80

Measured: T/C

CC(=O)N(C(C)=O)c1ccccc1
inactive: [1] 97 % of control | [2] 97 % of control | [3] 103 % of control

O=c1[nH]cnc2c1ncn2C1OC(CO)C(O)C1O.[Ag+] (configuration not stated)
inactive: endpoint: mean survival time, dose: 12.5 mg/kg/injection, schedule: Q01DX005 (ip), vehicle: other 92 % of control | endpoint: mean survival time, dose: 25.0 mg/kg/injection, schedule: Q01DX005 (ip), vehicle: other 98 % of control | endpoint: mean survival time, dose: 50.0 mg/kg/injection, schedule: Q01DX005 (ip), vehicle: other 87 % of control

O=c1[nH]c(=O)n(C2CC(O)C(CO)O2)cc1COCc1ccccc1 (configuration not stated)
inactive: endpoint: mean survival time, dose: 100.0 mg/kg/injection, schedule: Q01DX005 (ip), vehicle: saline 95 % of control | endpoint: mean survival time, dose: 200.0 mg/kg/injection, schedule: Q01DX005 (ip), vehicle: saline 105 % of control and 97 % of control

CCCCCCCCCCCCCCCC(=O)N(CCCN(C)C)c1ccc(N(CCCN(C)C)C(=O)CCCCCCCCCCCCCCC)cc1
inactive: endpoint: mean survival time, dose: 1.5 mg/kg/injection, schedule: Q01DX009 (ip), vehicle: saline sonified 98 % of control | endpoint: mean survival time, dose: 3.0 mg/kg/injection, schedule: Q01DX009 (ip), vehicle: saline sonified 101 % of control | endpoint: mean survival time, dose: 6.0 mg/kg/injection, schedule: Q01DX009 (ip), vehicle: saline sonified 98 % of control

CSc1nc2[nH]c(C)cc2c(=O)[nH]1
inactive: endpoint: median survival time, dose: 50.0 mg/kg/injection, schedule: Q01DX005 (ip), vehicle: saline 102 % of control | endpoint: median survival time, dose: 100.0 mg/kg/injection, schedule: Q01DX005 (ip), vehicle: saline 95 % of control | endpoint: median survival time, dose: 200.0 mg/kg/injection, schedule: Q01DX005 (ip), vehicle: saline 92 % of control

Nc1c(-c2nccc(=O)[nH]2)ncn1C1OC(CO)C(O)C1O (configuration not stated)
inactive: endpoint: median survival time, dose: 12.5 mg/kg/injection, schedule: Q01DX005 (ip), vehicle: saline with Tween-80 102 % of control | endpoint: median survival time, dose: 25.0 mg/kg/injection, schedule: Q01DX005 (ip), vehicle: saline with Tween-80 96 % of control | endpoint: median survival time, dose: 50.0 mg/kg/injection, schedule: Q01DX005 (ip), vehicle: saline with Tween-80 103 % of control | endpoint: median survival time, dose: 100.0 mg/kg/injection, schedule: Q01DX005 (ip), vehicle: saline with Tween-80 98 % of control | endpoint: median survival time, dose: 200.0 mg/kg/injection, schedule: Q01DX005 (ip), vehicle: saline with Tween-80 102 % of control

O=S1(=O)c2ccccc2C(=NO)c2ccccc21
inactive: [4] 92 % of control | endpoint: mean survival time, dose: 200.0 mg/kg/injection, schedule: Q04DX003 (ip), vehicle: saline 96 % of control | endpoint: mean survival time, dose: 400.0 mg/kg/injection, schedule: Q04DX003 (ip), vehicle: saline 106 % of control

C#CCNC1=C(C)C(=O)C2=C(C1=O)[C@H](COC(N)=O)[C@]1(OC)[C@H]3[C@@H](CN21)N3C (some centres not stated)
inactive: endpoint: mean survival time, dose: 3.0 mg/kg/injection, schedule: Q01DX001 (ip), vehicle: distilled water + Tween-80 97 % of control | endpoint: mean survival time, dose: 6.0 mg/kg/injection, schedule: Q01DX001 (ip), vehicle: distilled water + Tween-80 95 % of control | endpoint: mean survival time, dose: 12.0 mg/kg/injection, schedule: Q01DX001 (ip), vehicle: distilled water + Tween-80 101 % of control | endpoint: mean survival time, dose: 24.0 mg/kg/injection, schedule: Q01DX001 (ip), vehicle: distilled water + Tween-80 110 % of control | endpoint: mean survival time, dose: 48.0 mg/kg/injection, schedule: Q01DX001 (ip), vehicle: distilled water + Tween-80 118 % of control

NCC(F)(F)C(F)(F)C(F)(F)CN
inactive: [5] 98 % of control | [6] 107 % of control | [7] 103 % of control

CC1(C)OC2C(COC(=O)CI)OC(n3ccc(=O)[nH]c3=O)C2O1 (configuration not stated)
inactive: endpoint: median survival time, dose: 25.0 mg/kg/injection, schedule: Q01DX005 (ip), vehicle: Klucel (hydroxypropylcellulose) (HPC) 102 % of control | endpoint: median survival time, dose: 50.0 mg/kg/injection, schedule: Q01DX005 (ip), vehicle: Klucel (hydroxypropylcellulose) (HPC) 98 % of control

CCN(CC)CC#CCCCCN(CC)CC
inactive: [8] 101 % of control | endpoint: mean survival time, dose: 25.0 mg/kg/injection, schedule: Q04DX003 (ip), vehicle: saline 96 % of control | [5] 95 % of control | endpoint: mean survival time, dose: 50.0 mg/kg/injection, schedule: Q04DX003 (ip), vehicle: saline 94 % of control | [6] 93 % of control | [1] 94 % of control | [4] 94 % of control

ClCCCCOCCCCCl
inactive: [6] 95 % of control | [1] 97 % of control | [7] 95 % of control | [2] 95 % of control | [9] 117 % of control | [3] 97 % of control

COc1cc(OC)c(OC)cc1/C=c1\[nH]c(=O)/c(=C/c2cc(OC)c(OC)cc2OC)[nH]c1=O
inactive: endpoint: mean survival time, dose: 3.13 mg/kg/injection, schedule: Q01DX009 (ip), vehicle: saline with Tween-80 102 % of control | endpoint: mean survival time, dose: 6.25 mg/kg/injection, schedule: Q01DX009 (ip), vehicle: saline with Tween-80 90 % of control | endpoint: mean survival time, dose: 12.5 mg/kg/injection, schedule: Q01DX009 (ip), vehicle: saline with Tween-80 91 % of control | [2] 87 % of control

N#CN1CCC2CC3(CCC2C1)OCCO3 (configuration not stated)
inactive: endpoint: mean survival time, dose: 100.0 mg/kg/injection, schedule: Q01DX001 (ip), vehicle: saline 96 % of control | endpoint: mean survival time, dose: 200.0 mg/kg/injection, schedule: Q01DX001 (ip), vehicle: saline 91 % of control | endpoint: mean survival time, dose: 400.0 mg/kg/injection, schedule: Q01DX001 (ip), vehicle: saline 96 % of control

CCC(CO)Nc1nc2c(c(=O)n(C)c(=O)n2C)n1C (configuration not stated)
inactive: endpoint: mean survival time, dose: 12.5 mg/kg/injection, schedule: Q01DX005 (ip), vehicle: distilled water + Tween-80 101 % of control | endpoint: mean survival time, dose: 25.0 mg/kg/injection, schedule: Q01DX005 (ip), vehicle: distilled water + Tween-80 100 % of control | endpoint: mean survival time, dose: 50.0 mg/kg/injection, schedule: Q01DX005 (ip), vehicle: distilled water + Tween-80 101 % of control | endpoint: mean survival time, dose: 100.0 mg/kg/injection, schedule: Q01DX005 (ip), vehicle: distilled water + Tween-80 94 % of control | endpoint: mean survival time, dose: 200.0 mg/kg/injection, schedule: Q01DX005 (ip), vehicle: distilled water + Tween-80 101 % of control

C/C=C(/C(=O)OC)c1ccc([N+](=O)[O-])cc1
inactive: [6] 94 % of control | [1] 92 % of control | [7] 95 % of control | [2] 94 % of control | [9] 94 % of control | [3] 92 % of control

NNc1c(F)ccc(F)c1F
inactive: endpoint: mean survival time, dose: 25.0 mg/kg/injection, schedule: Q01DX001 (ip), vehicle: saline with Tween-80 100 % of control | endpoint: mean survival time, dose: 50.0 mg/kg/injection, schedule: Q01DX001 (ip), vehicle: saline with Tween-80 100 % of control | endpoint: mean survival time, dose: 100.0 mg/kg/injection, schedule: Q01DX001 (ip), vehicle: saline with Tween-80 94 % of control

COc1cc([N+](=O)[O-])c(C=O)c(C(=O)O)c1OC
inactive: [6] 103 % of control | [1] 90 % of control | [7] 104 % of control | [2] 98 % of control | [9] 110 % of control | [3] 107 % of control

CC(C)(CO)N=Cc1ccccc1F
inactive: endpoint: mean survival time, dose: 75.0 mg/kg/injection, schedule: Q01DX001 (ip), vehicle: other 97 % of control | endpoint: mean survival time, dose: 150.0 mg/kg/injection, schedule: Q01DX001 (ip), vehicle: other 96 % of control | endpoint: mean survival time, dose: 300.0 mg/kg/injection, schedule: Q01DX001 (ip), vehicle: other 93 % of control

CCCSCC
inactive: [8] 98 % of control | [5] 106 % of control | [6] 95 % of control and 96 % of control

CC(C)(Cc1ccc([N+](=O)[O-])cc1)[N+](=O)[O-]
inactive: endpoint: mean survival time, dose: 75.0 mg/kg/injection, schedule: Q01DX001 (ip), vehicle: saline 98 % of control | endpoint: mean survival time, dose: 150.0 mg/kg/injection, schedule: Q01DX001 (ip), vehicle: saline 102 % of control

C=CCN1C(=O)c2ccccc2C1=O
inactive: [6] 98 % of control | [1] 97 % of control | [7] 94 % of control | [2] 101 % of control | [9] 100 % of control | [3] 101 % of control

Cc1cccc(CN=C(N)CCl)n1
inactive: endpoint: mean survival time, dose: 100.0 mg/kg/injection, schedule: Q04DX002 (ip), vehicle: saline 111 % of control | endpoint: mean survival time, dose: 200.0 mg/kg/injection, schedule: Q04DX002 (ip), vehicle: saline 116 % of control

CCN(c1ccccc1)S(=O)(=O)CS(=O)(=O)N(CC)c1ccccc1
inactive: endpoint: mean survival time, dose: 100.0 mg/kg/injection, schedule: Q01DX001 (ip), vehicle: Klucel (hydroxypropylcellulose) (HPC) 104 % of control | endpoint: mean survival time, dose: 200.0 mg/kg/injection, schedule: Q01DX001 (ip), vehicle: Klucel (hydroxypropylcellulose) (HPC) 96 % of control | endpoint: mean survival time, dose: 400.0 mg/kg/injection, schedule: Q01DX001 (ip), vehicle: Klucel (hydroxypropylcellulose) (HPC) 93 % of control

CCOc1ccc(OCC)c(NC(=O)Nc2cccc(Cl)c2)c1
inactive: endpoint: mean survival time, dose: 25.0 mg/kg/injection, schedule: Q04DX002 (ip), vehicle: saline with Tween-80 92 % of control | endpoint: mean survival time, dose: 50.0 mg/kg/injection, schedule: Q04DX002 (ip), vehicle: saline with Tween-80 92 % of control | endpoint: mean survival time, dose: 100.0 mg/kg/injection, schedule: Q04DX002 (ip), vehicle: saline with Tween-80 88 % of control

O=S(=O)(OCCOC(c1ccccc1)(c1ccccc1)c1ccccc1)c1ccc(Br)cc1
inactive: [1] 94 % of control | [2] 90 % of control | [3] 98 % of control
